Measured values taken from patent US20180078602A1, “METHODS AND COMPOSITIONS FOR EXTENDING THE EFFICACY OF PHOSPHODIESTERASE INHIBITORS FOR TREATING ERECTILE DYSFUNCTION, AND COMPOSITIONS FOR INHIBITING THE ONSET AND SLOWING THE PROGRESSION OF ERECTILE DYSFUNCTION” (K.L.R.M., LLC, priority 2015, published 2018).

Tests used:
[1] = tested on: rat corpora cavernosa smooth muscle/collagen; assay: Masson trichrome staining, smooth muscle/collagen ratio by quantitative image analysis; type: in vivo; details: daily oral treatment 2 months; compared to 12 month-old control animals
Method: (§1) Middle aged 10 month-old Fisher 344 rats (Harlan Sprague-Dawley, San Diego, Calif.) were divided in 4 groups and treated daily for two months as follows: • a) Control: 12 month-old at the time of death receiving by retrolingual administration vehicle only composed of 10% dimethyl sulfoxide, peanut butter and water (12 month); • b) Composition 4 (COMP 4): a combination of Muira Puama (45 mg/Kg B.W), Paullinia cupana (45 mg/Kg B.W), ginger (45 mg/Kg B.W) and […]) dissolved in vehicle; • c) Tadalafil (TAD): 2.5 mg/Kg B.W tadalafil dissolved in vehicle; • d) Composition 4+Tadalafil (COMP4+TAD): A combination of b and c at the same doses. Histochemistry and Immunohistochemistry. […] Quantitative Image Analysis was performed by computerized densitometry using ImagePro 7.1 software (Media Cybernetics, Silver Spring, Md.), coupled to an Olympus BHS microscope equipped with a Retiga digital camera. For Masson staining, 40× magnification pictures of the penis comprising half of the corpora cavernosa were analyzed for smooth muscle (stained in red) and collagen areas (stained in blue) excluding the sinusoidal spaces, and expressed as the smooth muscle/collagen ratio. For desmin and iNOS staining, 200× magnification pictures of the corpora cavernosa were analyzed in a computerized grid and expressed as a percentage of positive area versus total area of the corpora cavernosa. […]

desmin = assay: Desmin immunohistochemistry (smooth muscle cell content); type: in vivo, rat; details: treatment 2 months; with respect to 12 month-old non-treated controls
Method: as §1

## CN1CC(=O)N2[C@H](c3ccc4c(c3)OCO4)c3[nH]c4ccccc4c3C[C@@H]2C1=O [tadalafil]
[1]
  improvement of SMC/collagen ratio: 60%
desmin
  increase in desmin expression: 38%
